Measured values taken from the CheMixHub ionic liquid set.

Test: xn = mol fraction of the nth substance listed

CCCCCC[n+]1ccn(C)c1.O=S(=O)([N-]S(=O)(=O)C(F)(F)F)C(F)(F)F + C1CCOC1
298.15 K, 100 kPa
Conditions	electrical conductivity [S/m]
x1 = 0.0649	0.9
x1 = 0.09702	1.1
x1 = 0.1393	1
x1 = 0.194	1.3
x1 = 0.2742	0.9

CCCCCCCC(=O)[O-].c1c[nH+]c[nH]1 + CC#N
101.3 kPa
Conditions	viscosity [mPa·s]
293.15 K, x2 = 0.298	37.82
293.15 K, x2 = 0.499	17.94
293.15 K, x2 = 0.5995	10.6
293.15 K, x2 = 0.8996	1.201
303.15 K, x2 = 0	56.48
303.15 K, x2 = 0.1044	45.4
303.15 K, x2 = 0.5995	9.6
308.15 K, x2 = 0.499	12.8
318.15 K, x2 = 0.298	18.21
318.15 K, x2 = 0.4005	14.1
323.15 K, x2 = 0.499	10.2
323.15 K, x2 = 0.5995	7.6

CCCCCC[n+]1ccn(C)c1.O=S(=O)([N-]S(=O)(=O)C(F)(F)F)C(F)(F)F + CC#N
298.15 K, 100 kPa
Conditions	electrical conductivity [S/m]
x1 = 0.03801	3.3
x1 = 0.0581	3.7
x1 = 0.08404	4
x1 = 0.1205	3.6
x1 = 0.1763	2.8

CCCCCC[n+]1ccn(C)c1.[Br-] + CC#N
viscosity [mPa·s], 101 kPa
Conditions	288.15 K	298.15 K	308.15 K	318.15 K
x1 = 0.004174	0.403	0.364	0.333	0.306
x1 = 0.008131	0.424	0.383	0.35	0.322
x1 = 0.01172	0.424	0.389	0.371	0.342

CCCCCC[n+]1ccn(C)c1.[Br-] + CC(=O)Oc1ccccc1C(=O)O + CC#N
viscosity [mPa·s], 101 kPa
Conditions	288.15 K	298.15 K	308.15 K	318.15 K
x2 = 0, x1 = 0.004174	0.403	0.364	0.333	0.306
x2 = 0, x1 = 0.008131	0.424	0.383	0.35	0.322
x2 = 0, x1 = 0.01172	0.424	0.389	0.371	0.342

OC[C@H]1O[C@@H](O[C@H]2[C@H](O)[C@@H](O)C(O)O[C@@H]2CO)[C@H](O)[C@@H](O)[C@@H]1O (stereo not given in full) + CC(=O)[O-].CC[n+]1ccn(C)c1
100 kPa
Conditions	viscosity [mPa·s]
292.4 K, x1 = 0.0255	339
302.1 K, x1 = 0.08067	921
312.5 K, x1 = 0.004998	61
312.5 K, x1 = 0.01515	73
322.6 K, x1 = 0.01515	45
322.6 K, x1 = 0.08067	207
332.2 K, x1 = 0.0255	39
332.2 K, x1 = 0.08067	123
342.5 K, x1 = 0.004998	20

Cn1ccnc1 + CC(=O)[O-].CC[n+]1ccn(C)c1 + CCOC(C)=O
298.15 K, 101 kPa
Conditions	electrical conductivity [S/m]	viscosity [mPa·s]
x2 = 0, x1 = 0.5	–	0.93
x2 = 0.09996, x1 = 0.45	0.259	1.32
x2 = 0.2001, x1 = 0.4	0.444	2.05
x2 = 0.3, x1 = 0.35	0.61	3.17
x2 = 0.3995, x1 = 0.3003	0.724	5.06
x2 = 0.5003, x1 = 0.2498	0.795	7.59
x2 = 0.598, x1 = 0.201	0.776	12.8
x2 = 0.7028, x1 = 0.1486	0.697	21.4
x2 = 0.8002, x1 = 0.09992	0.578	37.1
x2 = 0.8978, x1 = 0.0511	0.452	67.4

CC(=O)[O-].C[NH+]1CCOCC1 + CC(=O)[O-].Cn1cc[nH+]c1
Conditions	electrical conductivity [S/m]
298.15 K, 100 kPa, x2 = 0.71	0.274

CCCCCC[n+]1ccn(C)c1.O=S(=O)([N-]S(=O)(=O)C(F)(F)F)C(F)(F)F + CC(C)=O
298.15 K, 100 kPa
Conditions	electrical conductivity [S/m]
x1 = 0.0527	2.6
x1 = 0.07996	3.1
x1 = 0.1149	3.1
x1 = 0.163	2.4
x1 = 0.2325	2
